Laboratory results published in patent US12673052B2, “Combinations for the treatment of cancer” (Exelixis, Inc., priority 2020, dated 2026).
Where “and” joins values, the source holds several entries; their conditions need not be identical. Equal values may be shown once.

Experiments:
[1] = system: CYP2C8; experiment: Cytochrome P450 induction (mRNA levels) in fresh primary human hepatocytes; assay type: in vitro ADME
[2] = Repeat-dose toxicity studies (7-day range-finding, definitive 28-day, 14-day recovery); assay type: in vivo, dogs
Method: The nonclinical toxicity of Compound 1 was characterized in dose range-finding 7-day and definitive 28-day repeat-dose studies in rats and dogs, and in in vitro bacterial and mammalian genotoxicity bioassays. Compound 1 was also evaluated in definitive neurobehavioral, respiratory and cardiovascular safety pharmacology studies.

[3] = system: primary human macrophages; experiment: Efferocytosis: primary human macrophages cultured with apoptotic Jurkat cells; assay type: cell-based; settings: read-out: Cellular IC50 (nM) (n = 2); one row per donor (#1-#5); geometric mean +/− geometric standard deviation
Method: In addition, the TAM RTKs are critical in the process of efferocytosis, or the recognition and phagocytosis of apoptotic cells that maintains normal tissue homeostasis. When efferocytosis is inhibited, macrophages engage a proinflammatory activation response. When primary human macrophages are cultured with apoptotic Jurkat cells in the presence of Compound 1, their phagocytic ability was inhibited in a dose dependent manner. In Table 5, the IC50 from 5 independent donors are listed.

[4] = system: CT26 colon carcinoma cells; experiment: Efficacy after oral dosing in CT26 tumor bearing female Balb/c mice; assay type: in vivo
Excerpt: In this study, the inhibitory effects of Compound 1 as a single agent and in combination with an anti-PD-1 inhibitor in Balb/c mice grafted with CT26 colon carcinoma cells were studied. CT26 cells inoculated into syngeneic mice are highly tumorigenic (Brattain et al. 1980) and share molecular features with undifferentiated, invasive human colorectal carcinoma cells (Castle et al. 2014). Therefore, the CT26 cell line can serve as a valid cellular model for the metastatic and poorly differentiated human colorectal cancer. Moreover, this model has been reported to express significant levels of RTKs, indicating a potential reliance on these signaling pathway for the maintenance of a tumorigenic phenotype in vivo (Pryzybyszewska et al. 2017).
CT26 colon carcinoma cells (ATCC, CRL-2638) were thawed from the Exelixis pharmacology cell bank into T-75 flasks (Corning, 43064U) using fresh culture medium, ie, RPMI-1640 containing 10% fetal bovine serum (GIBCO, A384002). […]
Oral doses were administered via a […], 1.5″ stainless steel needle with silicone tip (VWR, 20068-666). […] Survival was monitored for a maximum of 40 days. […]
All animals were measured twice a week for tumor volume and body weight using Studylog software.
Significance values represent differences in comparison to vehicle or anti-PD-1 treatment groups and were determined using a nonparametric Mann-Whitney U-test. […]

[5] = biological target: MET (Homo sapiens, UniProt P08581); experiment: Kinase catalytic activity assay, radioactive assay platform; assay type: biochemical; settings: 10 μM ATP
Method: (§1) Compound 1 inhibitory activity was evaluated in multiple kinase catalytic activity assays using a radioactive assay platform. […] All in vitro biochemical assays were performed at 10 μM ATP concentrations.

[6] = biological target: VEGFR2 (Homo sapiens, UniProt P35968); experiment: as above; assay type: biochemical; settings: 10 μM ATP
Method: as §1

[7] = biological target: AXL (Homo sapiens, UniProt P30530); experiment: as above; assay type: biochemical; settings: 10 μM ATP
Method: as §1

[8] = biological target: MER (Homo sapiens, UniProt Q12866); experiment: as above; assay type: biochemical; settings: 10 μM ATP
Method: as §1

[9] = Liver microsomal stability assay; assay type: in vitro ADME, dog; settings: liver microsomes
Method: In the liver microsomal stability assay, CLint was 0.601 mL/min/g liver in mouse, 0.563 mL/min/g liver in rat, 0.315 mL/min/g liver in dog, 0.734 mL/min/g liver in monkey, and 0.639 mL/min/g liver in human. In the hepatocyte stability assay, Compound 1 CLint was 0.373 mL/min/g liver in mouse, 0.285 mL/min/g liver in rat, 1.08 mL/min/g liver in dog, 0.533 mL/min/g liver in monkey, and 0.317 mL/min/g liver in human.

[10] = In vitro plasma protein binding; assay type: in vitro ADME, monkey
Method: (§2) Plasma PK of Compound 1 was characterized in rats and beagle dogs. Toxicokinetic (TK) evaluations of oral Compound 1 were evaluated in repeat-dose studies in rats and dogs. Plasma protein binding was determined in mouse, rat, dog, monkey, and human plasma in vitro. Biotransformation and metabolite profiling of Compound 1 were investigated in vitro using mouse, rat, dog, monkey, and human liver microsomal fractions and hepatocytes and in vivo in rats and dogs. P-glycoprotein (P-gp) and breast cancer resistance protein (BCRP) transporter interaction studies, in vitro experiments evaluating cytochrome P450 (CYP) induction and inhibition by Compound 1, and CYP and glucuronosyltransferase (UGT) substrate specificity studies of Compound 1 were also performed.
Compound 1 (10 μM) was 97.2 and 97.5% protein bound in monkey and human plasma, respectively.

[11] = biological target: CYP2D6 (Homo sapiens, UniProt P10635); experiment: CYP/UGT substrate specificity (recombinant Supersomes, chemical inhibitors in human liver microsomes); assay type: in vitro ADME; parameters: purchased; host or cells: recombinant Supersomes; human liver microsomes
Method: as §2

Sequence of AXL (P30530 26-894): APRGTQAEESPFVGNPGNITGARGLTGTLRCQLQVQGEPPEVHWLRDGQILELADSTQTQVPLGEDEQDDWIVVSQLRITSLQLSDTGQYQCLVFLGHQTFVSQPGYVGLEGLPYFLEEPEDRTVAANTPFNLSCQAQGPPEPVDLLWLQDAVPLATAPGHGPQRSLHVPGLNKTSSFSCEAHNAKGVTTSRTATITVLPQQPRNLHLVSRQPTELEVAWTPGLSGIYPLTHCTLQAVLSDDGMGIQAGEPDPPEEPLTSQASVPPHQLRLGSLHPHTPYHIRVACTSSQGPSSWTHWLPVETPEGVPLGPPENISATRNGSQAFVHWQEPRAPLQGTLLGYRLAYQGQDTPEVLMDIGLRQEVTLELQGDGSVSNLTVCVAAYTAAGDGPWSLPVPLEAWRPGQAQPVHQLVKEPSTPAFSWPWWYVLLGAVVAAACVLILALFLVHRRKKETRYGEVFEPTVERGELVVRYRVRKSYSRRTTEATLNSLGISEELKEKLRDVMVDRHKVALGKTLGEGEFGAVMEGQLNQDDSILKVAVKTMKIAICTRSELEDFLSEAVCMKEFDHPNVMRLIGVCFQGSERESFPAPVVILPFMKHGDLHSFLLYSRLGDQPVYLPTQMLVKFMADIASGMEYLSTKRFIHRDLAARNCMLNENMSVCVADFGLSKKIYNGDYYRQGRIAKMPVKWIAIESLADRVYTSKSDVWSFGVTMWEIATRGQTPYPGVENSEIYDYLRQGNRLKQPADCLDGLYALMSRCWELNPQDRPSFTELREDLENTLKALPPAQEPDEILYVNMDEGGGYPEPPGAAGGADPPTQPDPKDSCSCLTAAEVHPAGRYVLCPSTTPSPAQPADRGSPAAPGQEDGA
Sequence of VEGFR2 (P35968 20-1356): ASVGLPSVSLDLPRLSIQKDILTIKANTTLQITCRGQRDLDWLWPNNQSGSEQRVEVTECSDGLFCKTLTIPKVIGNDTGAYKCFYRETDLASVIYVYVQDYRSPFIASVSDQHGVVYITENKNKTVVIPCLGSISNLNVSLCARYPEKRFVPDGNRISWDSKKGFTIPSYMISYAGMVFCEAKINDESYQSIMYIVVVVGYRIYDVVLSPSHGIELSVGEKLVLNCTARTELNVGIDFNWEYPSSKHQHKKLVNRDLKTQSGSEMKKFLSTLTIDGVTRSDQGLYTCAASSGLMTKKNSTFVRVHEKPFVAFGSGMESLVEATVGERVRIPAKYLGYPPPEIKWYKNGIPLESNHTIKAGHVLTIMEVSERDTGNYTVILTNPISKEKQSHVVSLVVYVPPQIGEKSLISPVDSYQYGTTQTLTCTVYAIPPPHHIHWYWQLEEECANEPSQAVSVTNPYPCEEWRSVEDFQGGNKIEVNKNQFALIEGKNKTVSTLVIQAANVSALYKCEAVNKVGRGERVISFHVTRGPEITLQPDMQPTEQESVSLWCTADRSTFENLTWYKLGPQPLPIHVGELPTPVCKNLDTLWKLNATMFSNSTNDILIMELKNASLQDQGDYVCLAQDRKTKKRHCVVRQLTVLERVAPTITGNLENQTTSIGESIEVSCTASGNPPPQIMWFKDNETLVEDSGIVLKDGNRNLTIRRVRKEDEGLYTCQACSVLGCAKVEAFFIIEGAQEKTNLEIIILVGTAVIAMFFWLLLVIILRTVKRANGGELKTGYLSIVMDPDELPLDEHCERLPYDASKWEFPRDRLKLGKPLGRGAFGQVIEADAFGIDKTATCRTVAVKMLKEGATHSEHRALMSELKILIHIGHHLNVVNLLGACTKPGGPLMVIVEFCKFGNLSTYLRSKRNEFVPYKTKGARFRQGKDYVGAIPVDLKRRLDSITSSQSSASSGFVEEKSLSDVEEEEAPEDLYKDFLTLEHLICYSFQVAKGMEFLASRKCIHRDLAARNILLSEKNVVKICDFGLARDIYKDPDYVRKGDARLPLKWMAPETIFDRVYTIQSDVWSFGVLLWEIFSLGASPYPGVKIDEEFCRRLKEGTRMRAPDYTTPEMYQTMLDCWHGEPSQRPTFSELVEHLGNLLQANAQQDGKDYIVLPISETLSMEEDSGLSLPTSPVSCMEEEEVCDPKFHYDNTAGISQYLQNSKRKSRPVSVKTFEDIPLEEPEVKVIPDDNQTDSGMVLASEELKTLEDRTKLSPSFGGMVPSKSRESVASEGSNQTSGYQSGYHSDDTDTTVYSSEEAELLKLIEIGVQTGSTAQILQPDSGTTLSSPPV
Sequence of MER (Q12866 21-999): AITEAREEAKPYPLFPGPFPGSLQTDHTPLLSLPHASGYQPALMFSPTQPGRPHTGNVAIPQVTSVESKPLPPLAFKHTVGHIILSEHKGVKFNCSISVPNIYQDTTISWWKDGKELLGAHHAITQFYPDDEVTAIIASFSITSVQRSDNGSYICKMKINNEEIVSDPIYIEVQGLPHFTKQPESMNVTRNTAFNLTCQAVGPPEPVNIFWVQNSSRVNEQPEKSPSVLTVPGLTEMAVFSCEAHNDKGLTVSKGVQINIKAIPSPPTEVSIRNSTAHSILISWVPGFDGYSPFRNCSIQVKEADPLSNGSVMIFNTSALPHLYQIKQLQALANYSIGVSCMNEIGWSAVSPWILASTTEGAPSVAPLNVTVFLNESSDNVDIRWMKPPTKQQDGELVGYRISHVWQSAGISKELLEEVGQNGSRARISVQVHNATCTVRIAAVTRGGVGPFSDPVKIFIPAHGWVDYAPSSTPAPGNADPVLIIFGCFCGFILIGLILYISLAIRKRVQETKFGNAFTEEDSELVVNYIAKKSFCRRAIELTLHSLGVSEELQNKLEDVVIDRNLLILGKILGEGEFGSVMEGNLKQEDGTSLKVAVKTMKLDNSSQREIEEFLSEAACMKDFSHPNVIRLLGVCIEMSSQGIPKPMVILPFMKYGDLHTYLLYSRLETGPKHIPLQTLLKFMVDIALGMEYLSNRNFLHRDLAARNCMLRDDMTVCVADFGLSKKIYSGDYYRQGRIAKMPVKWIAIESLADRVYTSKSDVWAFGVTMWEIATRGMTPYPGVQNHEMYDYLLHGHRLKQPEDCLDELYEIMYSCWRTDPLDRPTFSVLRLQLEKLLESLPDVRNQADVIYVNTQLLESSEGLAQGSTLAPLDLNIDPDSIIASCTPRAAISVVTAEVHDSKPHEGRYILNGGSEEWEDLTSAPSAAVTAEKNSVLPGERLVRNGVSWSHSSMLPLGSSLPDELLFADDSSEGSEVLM
Sequence of CYP2D6 (P10635 whole entry): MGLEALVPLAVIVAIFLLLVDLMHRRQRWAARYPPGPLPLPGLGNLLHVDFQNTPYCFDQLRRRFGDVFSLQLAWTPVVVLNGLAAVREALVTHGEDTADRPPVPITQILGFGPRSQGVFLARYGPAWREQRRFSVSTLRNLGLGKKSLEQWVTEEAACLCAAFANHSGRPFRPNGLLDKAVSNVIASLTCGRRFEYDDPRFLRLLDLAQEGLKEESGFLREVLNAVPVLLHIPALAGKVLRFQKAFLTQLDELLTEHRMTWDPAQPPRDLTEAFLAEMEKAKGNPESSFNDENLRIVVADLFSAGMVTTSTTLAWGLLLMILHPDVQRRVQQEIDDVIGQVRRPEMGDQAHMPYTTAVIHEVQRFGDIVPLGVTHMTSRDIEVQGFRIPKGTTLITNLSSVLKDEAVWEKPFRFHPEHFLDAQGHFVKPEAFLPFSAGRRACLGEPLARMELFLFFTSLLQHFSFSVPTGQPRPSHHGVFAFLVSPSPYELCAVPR
Sequence of MET (P08581 25-1390): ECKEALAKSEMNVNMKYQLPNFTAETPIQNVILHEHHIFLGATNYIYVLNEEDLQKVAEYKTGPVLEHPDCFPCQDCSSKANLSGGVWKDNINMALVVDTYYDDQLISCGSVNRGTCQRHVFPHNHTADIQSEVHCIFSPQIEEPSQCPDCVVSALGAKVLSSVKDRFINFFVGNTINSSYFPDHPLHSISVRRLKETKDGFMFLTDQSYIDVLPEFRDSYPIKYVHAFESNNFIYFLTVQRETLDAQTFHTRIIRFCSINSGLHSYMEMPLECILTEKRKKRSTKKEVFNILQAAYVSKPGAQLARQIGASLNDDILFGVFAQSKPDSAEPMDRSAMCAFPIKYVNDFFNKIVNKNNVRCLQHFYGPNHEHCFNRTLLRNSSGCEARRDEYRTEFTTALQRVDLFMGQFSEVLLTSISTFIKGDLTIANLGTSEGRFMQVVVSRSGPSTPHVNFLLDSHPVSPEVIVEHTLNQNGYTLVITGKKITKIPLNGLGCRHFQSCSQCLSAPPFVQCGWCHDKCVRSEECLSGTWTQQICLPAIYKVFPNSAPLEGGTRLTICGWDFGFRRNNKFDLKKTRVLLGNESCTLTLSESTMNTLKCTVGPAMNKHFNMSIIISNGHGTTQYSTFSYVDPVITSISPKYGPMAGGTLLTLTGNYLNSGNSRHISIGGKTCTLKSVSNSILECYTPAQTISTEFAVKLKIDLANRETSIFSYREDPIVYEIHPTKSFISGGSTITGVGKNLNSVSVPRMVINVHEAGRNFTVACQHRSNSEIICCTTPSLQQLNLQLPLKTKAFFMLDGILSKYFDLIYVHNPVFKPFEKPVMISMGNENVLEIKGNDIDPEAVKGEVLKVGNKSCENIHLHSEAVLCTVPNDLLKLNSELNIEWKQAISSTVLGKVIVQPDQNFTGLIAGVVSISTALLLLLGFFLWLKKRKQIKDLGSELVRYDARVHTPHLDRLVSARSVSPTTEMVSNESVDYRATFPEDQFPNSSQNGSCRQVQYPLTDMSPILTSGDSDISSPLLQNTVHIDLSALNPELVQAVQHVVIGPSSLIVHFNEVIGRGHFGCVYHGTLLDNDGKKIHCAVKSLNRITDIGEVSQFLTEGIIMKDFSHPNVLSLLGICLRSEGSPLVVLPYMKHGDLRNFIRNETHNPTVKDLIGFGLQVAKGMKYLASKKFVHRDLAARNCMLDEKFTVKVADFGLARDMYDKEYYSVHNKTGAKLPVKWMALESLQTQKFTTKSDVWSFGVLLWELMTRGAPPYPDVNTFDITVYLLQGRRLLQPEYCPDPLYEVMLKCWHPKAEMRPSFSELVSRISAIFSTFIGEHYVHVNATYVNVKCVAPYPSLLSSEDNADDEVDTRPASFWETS

Q: For `CNC(=O)c1cc2c(Oc3ccc(NC(=O)C4(C(=O)Nc5ccc(F)cc5)CC4)cc3)ccnc2cc1OC` [Compound 1, 1-N′-(4-Fluorophenvl)-1-N-[4-[7-methoxy-6-(methylcarbamovl)quinolin-4-yl]oxyphenyl]cyclopropane-1,1-dicarboxamide], which EC50 ([1]; human, fresh primary human hepatocytes, mRNA induction, read-out: half-maximal effective concentration (EC50)) is on record?
A: 2010 nM

Q: What about the “maximal induction effect (Emax)” value ([1]; mRNA, 0.1-100 μM) of the same compound?
A: 7 fold

Q: And the “reversibility of adverse findings” value ([2]; 14-day non-treatment recovery period)?
A: partially or completely reversible

Q: And the Cmax at 28 days ([2]; both sexes, dog, plasma, oral, 18 mg/kg/day, daily dosing for 28 days)?
A: ~7 µM

Q: What about the ophthalmic findings ([2]; daily for 4 weeks) of the same compound?
A: No adverse ophthalmic findings

Q: What about the QTc interval ([2]; male and female dogs, daily dosing 28 days, 18 mg/kg/day) of the same compound?
A: no QTc interval prolongation

Q: And the cholesterol ([2]; repeat-dose)?
A: increased cholesterol

Q: What about the dose-related clinical signs ([2]; repeat-dose) of the same compound?
A: hypoactivity, vomitus, and fecal changes

Q: What about the reticulocytes ([2]; repeat-dose) of the same compound?
A: transient decreases in reticulocytes

Q: What about the “nasal turbinate histologic findings” value ([2]; terminal sacrifice males >6 mg/kg/day, considered non-adverse) of the same compound?
A: increased incidences and severities of mixed cell inflammation and osteolysis/osteogenesis

Q: What about the IC50 [3] of the same compound?
A: 42.7 nM and 45.1 nM and 44 nM and 96.5 nM and 181 nM

Q: What about the “survival (Kaplan Meier)” value ([4]; 40-day dosing, P<0.0001 Compound 1 vs vehicle, P<0.0001 combination vs aPD-1 alone, P<0.05 combination vs Compound 1) of the same compound?
A: Survival benefit and dose response

Q: And the tumor growth ([4]; single agent 1, 3, 10, and 30 mg/kg/day for 40 days)?
A: tumor growth delay

Q: And the IC50 [5]?
A: 3 nM

Q: And the IC50 [6]?
A: 15 nM

Q: And the IC50 [7]?
A: 5.8 nM

Q: What about the IC50 [8] of the same compound?
A: 0.6 nM

Q: What about the CLint [9] of the same compound?
A: 0.315 mL/min/g liver

Q: What about the protein bound ([10]; 10 μM) of the same compound?
A: 97.2%

Q: What about the fraction unbound ([10]; monkey, plasma, 0.2 and 1 μM) of the same compound?
A: < 0.01

Q: And the “role in the metabolism of Compound 1” value [11]?
A: only a minor role
